The subject of this test is HVA calcium channel. Type of test: cell-based, rat.

Entries after “also recorded” stand apart in the source; their conditions may differ.

For the sequence KCCTMSVCQPPPVCTCCA [κ-CPTx-btl01], the current after loading is on record as −459.93 pA and the “inhibition of HVA calcium channel currents compared with Nifedipine (positive control)” value is “inhibitory effect is higher than that of Nifedipine; also recorded: higher inhibition rate on HVA calcium channel currents than Nifedipine”. Besides, the inhibition rate (10 µM) is 52.17%.
